# Source: patent US20250099468A1, “TREATING LIVER DISORDERS WITH AN SSAO INHIBITOR” (Terns Pharmaceuticals, Inc., priority 2021, published 2025)
# Entries after “also recorded” stand apart in the source; their conditions may differ.
# Legend:
# plasma methylamine [1] = assay: Single-ascending dose trial, plasma methylamine (MMA); type: in vivo, human; conditions: single dose 1-10 mg
# Protocol: (§1) Safety was assessed for 7 (±3) days after dosing.
# MAO-B = biological target: T1, MAO-B (Homo sapiens, UniProt P27338); assay: Biochemical activity, MAO-B; conditions: all single dose levels (1-10 mg)
# T1 sequence (P27338 1-520): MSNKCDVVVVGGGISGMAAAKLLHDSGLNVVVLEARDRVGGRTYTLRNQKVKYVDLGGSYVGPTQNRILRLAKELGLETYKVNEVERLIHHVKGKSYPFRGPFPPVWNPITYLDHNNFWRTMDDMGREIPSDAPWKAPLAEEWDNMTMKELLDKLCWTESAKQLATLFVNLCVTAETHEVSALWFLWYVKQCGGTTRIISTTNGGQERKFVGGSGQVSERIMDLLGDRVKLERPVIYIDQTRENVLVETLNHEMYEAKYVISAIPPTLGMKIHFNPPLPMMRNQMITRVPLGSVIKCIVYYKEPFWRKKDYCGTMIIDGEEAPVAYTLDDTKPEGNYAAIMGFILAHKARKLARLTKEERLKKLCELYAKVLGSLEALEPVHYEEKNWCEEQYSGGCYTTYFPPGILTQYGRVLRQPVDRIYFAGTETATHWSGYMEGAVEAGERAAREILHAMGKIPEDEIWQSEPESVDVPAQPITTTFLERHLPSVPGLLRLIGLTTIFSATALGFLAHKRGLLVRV
# MAO-A = biological target: T2, MAO-A (Homo sapiens, UniProt P21397); assay: Biochemical activity, MAO-A; conditions: all single dose levels (1-10 mg)
# T2 sequence (P21397 1-527): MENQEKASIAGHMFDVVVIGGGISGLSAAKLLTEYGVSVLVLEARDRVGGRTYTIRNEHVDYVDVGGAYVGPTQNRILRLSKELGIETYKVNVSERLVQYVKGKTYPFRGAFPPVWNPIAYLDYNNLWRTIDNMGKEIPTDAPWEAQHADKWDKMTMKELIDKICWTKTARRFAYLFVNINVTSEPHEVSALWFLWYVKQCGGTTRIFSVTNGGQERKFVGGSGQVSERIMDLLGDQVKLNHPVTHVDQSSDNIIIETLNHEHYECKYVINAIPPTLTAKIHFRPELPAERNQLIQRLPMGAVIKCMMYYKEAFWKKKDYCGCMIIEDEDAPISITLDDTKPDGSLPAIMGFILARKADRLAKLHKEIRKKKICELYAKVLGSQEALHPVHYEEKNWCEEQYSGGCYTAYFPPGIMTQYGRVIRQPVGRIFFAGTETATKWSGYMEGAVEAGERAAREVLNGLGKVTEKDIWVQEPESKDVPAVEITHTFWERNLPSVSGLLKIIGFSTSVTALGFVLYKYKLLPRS
# rat model of NASH = assay: Rat model of NASH; type: in vivo
# plasma methylamine [2] = assay: Multiple-ascending dose trial, plasma methylamine; type: in vivo, human
# Protocol: (§2) A multiple-ascending dose clinical trial of Compound 1 was performed.
# [3] = Multiple-ascending dose clinical trial, safety; type: in vivo, human
# Protocol: as §2
# [4] = NASH patient study Part 1, safety; type: in vivo, human; conditions: 10 mg QD 12 weeks, NASH patients
# Protocol: (§3) Part 1 interim analysis primary endpoint was safety assessed by adverse events (AEs) and laboratory tests; percent change from baseline (BL) in plasma VAP-1 activity was a secondary endpoint. Exploratory imaging and blood-based biomarkers of liver inflammation and fibrosis were also assessed. Analyses of change (or percent change) from baseline used an ANCOVA model with change (or percent change) from baseline as the dependent variable including treatment group and randomization strata as fixed effects and baseline as a covariate.
# [5] = tested on: NASH and inflammation biomarkers; assay: NASH patient study Part 1, imaging and blood biomarkers of liver inflammation and fibrosis; type: in vivo, human
# Protocol: Plasma samples are collected for measurement of plasma concentrations of study drug and metabolites. Urine samples are collected for measurement of urine concentrations of study drug and metabolites. Patients who are not participating in the PK/PD sub-study undergo trough PK sampling only. Blood collection for NASH/fibrosis markers (CK-18 (M30 and M65), PIIINP, TIMP-1, HA, PRO-C3, and C3M) and inflammation markers (hs-CRP, IL-6, ICAM-1, and VCAM-1) are also conducted. The following exploratory fibrosis scores may also be calculated: FIB-4, enhanced liver fibrosis (ELF), and NAFLD. The PRO-C3/C3M ratio may be calculated. Patients are monitored for adverse events.
# as §3
# [6] = Multiple-ascending dose clinical trial, plasma PK; type: in vivo, human
# Protocol: as §2
# plasma SSAO [7] = biological target: T3, plasma SSAO (Homo sapiens, UniProt Q16853); assay: Single-ascending dose trial, plasma SSAO / amine oxidase activity; type: in vivo
# T3 construct: from tissue; host or cells: human plasma
# T3 sequence (Q16853 29-763 limits assumed): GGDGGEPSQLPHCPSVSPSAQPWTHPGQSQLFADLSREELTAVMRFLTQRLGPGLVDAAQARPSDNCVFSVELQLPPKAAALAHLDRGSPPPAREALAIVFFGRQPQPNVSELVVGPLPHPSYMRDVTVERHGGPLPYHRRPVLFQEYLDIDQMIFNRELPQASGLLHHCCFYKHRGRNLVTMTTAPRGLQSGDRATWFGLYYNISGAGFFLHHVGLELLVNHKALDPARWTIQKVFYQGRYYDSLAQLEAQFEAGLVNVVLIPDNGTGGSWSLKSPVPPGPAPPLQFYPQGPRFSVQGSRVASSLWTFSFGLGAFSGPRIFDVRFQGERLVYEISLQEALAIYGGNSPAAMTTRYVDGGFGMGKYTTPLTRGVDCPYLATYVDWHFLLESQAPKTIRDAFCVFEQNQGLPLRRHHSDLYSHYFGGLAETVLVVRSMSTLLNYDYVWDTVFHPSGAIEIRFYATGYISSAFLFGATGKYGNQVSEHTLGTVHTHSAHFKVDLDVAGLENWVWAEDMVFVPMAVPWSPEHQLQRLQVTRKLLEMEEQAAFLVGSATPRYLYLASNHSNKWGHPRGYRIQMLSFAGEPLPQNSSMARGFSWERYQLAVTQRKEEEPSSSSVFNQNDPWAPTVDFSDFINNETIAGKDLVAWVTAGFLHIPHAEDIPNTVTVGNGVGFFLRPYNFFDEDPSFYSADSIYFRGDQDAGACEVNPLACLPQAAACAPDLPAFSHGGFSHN
# Protocol: as §1
# (§4) Plasma PK parameters were determined by non-compartmental analysis.
# SSAO-specific amine oxidase levels in plasma were determined using a kinetic-based assay essentially as described previously (Schilter et al). Endogenous monoamine oxidases A and B were inhibited by adding pargyline to plasma samples prior to measuring H2O2 generation levels in placebo and active recipients.
# plasma VAP-1 = biological target: T4, plasma VAP-1 (Homo sapiens, UniProt Q16853); assay: NASH patient study Part 1, plasma VAP-1 activity; type: in vivo; conditions: 10 mg QD, through week 12
# T4 construct: from tissue; host or cells: human plasma
# T4 sequence (Q16853 29-763 limits assumed): T3 sequence (Q16853 29-763 limits assumed)
# Protocol: as §3
# plasma SSAO [8] = biological target: T3, plasma SSAO; assay: Multiple-ascending dose trial, plasma SSAO / amine oxidase activity; type: in vivo
# Protocol: as §2
# [9] = Single-ascending dose clinical trial, plasma PK; type: in vivo, human; conditions: for plasma PK exposure increase with dose: single dose, between 3 and 10 mg
# Protocol: as §1, §4
# [10] = Single-ascending dose clinical trial, safety; type: in vivo, human; conditions: single dose 6 mg or placebo (n = 8)
# Protocol: as §1
# [11] = 1, 4 mg QD 7 days, 10 mg QD 14 days
compound,measurement,setting,value
"COC1CCN(c2ncc(OC/C(=C/F)CN)cn2)CC1 [Compound 1, (E)-3-fluoro-2-(((2-(4-methoxypiperidin-1-yl)pyrimidin-5-yl)oxy)methyl)prop-2-en-1-amine]",plasma methylamine (MMA) levels,plasma methylamine [1],increased; also recorded: Dose-dependent increases
same,Cmax relative to IC50 for MAO-B (times lower),MAO-B,more than 800 times
same,Cmax relative to IC50 for MAO-A (times lower),MAO-A,more than 800 times
same,liver inflammation and fibrosis,rat model of NASH,decreases liver inflammation and fibrosis
same,plasma methylamine levels,plasma methylamine [2]; Day 1,increased in a dose proportional manner
same,plasma methylamine levels,"plasma methylamine [2]; last day of administration, after multiple doses",further increases
same,discontinuation due to an adverse event,[3]; [11],No subject discontinued
same,severity of adverse events,[3]; [11],mild (grade 1)
same,"safety and tolerability (laboratory, vital signs, ECG)","[3]; up to 10 mg QD for 14 days, healthy subjects",no notable findings; also recorded: safe and well tolerated
same,severity of AEs,[4],mild or moderate
same,tolerability,[4],well-tolerated
same,changes in cT1 from baseline to end of treatment,[5]; 10 mg QD 12 weeks,no significant changes
same,"difference from placebo in change from BL cT1, liver fat fraction, liver enzymes, or cytokeratin-18",[5]; 10 mg QD 12 weeks,no statistically significant differences
same,"ICAM-1 decrease relative to BL, mean (±SE)","[5]; 10 mg QD, Week 8",34.85 (56.03) μg/L
same,"TIMP-1 decrease relative to BL, mean (±SE)","[5]; 10 mg QD, Week 12",29.58 (9.26) ng/ml
same,"VCAM-1 decrease relative to BL, mean (±SE)","[5]; 10 mg QD, Week 12",24.327 (20.5850) μg/L
same,plasma PK exposure increases between dose groups,"[6]; Day 1, 1, 4, 10 mg",greater than dose proportional
same,accumulation after multiple QD doses,[6]; each dose level,significant accumulation
same,duration of SSAO activity inhibition after a single dose,plasma SSAO [7]; single dose 1 mg to 10 mg,up to seven days
same,duration of suppression of plasma SSAO amine oxidase activity after a single dose,plasma SSAO [7]; single dose 1-10 mg,up to 1 week
same,inhibition of plasma VAP-1 activity,plasma VAP-1,sustained suppression; also recorded: near complete inhibition
same,duration of near complete inhibition of plasma SSAO amine oxidase activity after cessation of dosing,plasma SSAO [8]; after multiple QD doses,up to 2 weeks
same,inhibition of total amine oxidase,"plasma SSAO [8]; plasma, single and multiple doses",incomplete
same,plasma PK exposure increase with dose,[9],greater than dose proportional
COC1CCN(c2ncc(OC/C(=C/F)CN)cn2)CC1.Cc1ccc(S(=O)(=O)O)cc1 [tosylate salt of Compound 1],Subject incidence of any TEAE,[10],2 (25)
same,TEAE frequency: contact dermatitis,[10],2 (25)
same,TEAE frequency: sore throat,[10],1 (12.5)
same,plasma PK exposure increase with dose,[9],greater than dose proportional
same,clearance from plasma,[9]; single doses,rapidly cleared from plasma
